Reference: PMC10569896, “Molecular Investigation of the Antitumor Effects of Monoamine Oxidase Inhibitors in Breast Cancer Cells” (BioMed Research International, 2023)

How the values were obtained:
MDA-MB-231 = assay: cells; parameters: MTT cell viability assay, antiproliferative IC50 in MDA-MB-231 breast cancer cells; conditions: Homo sapiens, MDA-MB-231, 48 h
Description: (§1) To assess the effect of MAO-AIs on the survival and proliferation of breast cancer cells, MTT colorimetric analysis was performed as previously described. MDA-MB-231 and T47D cells were seeded into a 96-well plate, at a different seeding density per well depending on proliferation ability, doubling time, and target time of treatment. Then, cells were maintained at 37°C in a humidified 5% CO2 atmosphere. Cell viability was calculated as follows: cell viability (%) = [(optical density of viable cells in the test group)/optical density of viable cells in the negative control group] × 100%. Experiments were run at least 2-3 times independently. […] The ratio of IC50 for each drug alone guided the selection of an appropriate combination ratio. As described earlier, the MTT test was used to determine cell viability after treatment time elapsed (48 hours). CompuSyn software (ComboSyn Inc., Paramus, NJ, USA) was used to determine the combination index (CI), which is based on Chou-Talalay's combination index theorem, and its formula is the sum of the ratio of the dose of each drug in the compound to the dose when used alone when the combination and compound produce 50% efficacy. CI values < 1, =1, and > 1 indicate synergism, additive, and antagonistic effects, respectively, as shown in Equation (1). In this study, MTT assay was performed after exposing MDA-MB-231 and T-47d cell lines to increasing concentrations of MAO-A inhibitors for either 24, 48, or 72 h. […] Breast cancer cell lines, T-47D and MDA-MB-231 cells, were purchased from American Type Culture Collection (ATCC, USA). Cells were cultured in DMEM high glucose culture medium supplemented with 10% fetal bovine serum (FBS), 2 mM L-glutamine, 100 U/mL penicillin, and 0.1 mg/mL streptomycin. Cells were maintained in a humidified controlled temperature incubator set at 37°C, 95% humidity, and 5% CO2.

T-47D = assay: cells; parameters: MTT cell viability assay, antiproliferative IC50 in T-47D breast cancer cells; conditions: Homo sapiens, T47D, 48 h
Description: as §1

Question: What does the source list for `COc1cccc2c1C(=O)c1c(O)c3c(c(O)c1C2=O)C[C@@](O)(C(=O)CO)C[C@@H]3O[C@H]1C[C@H](N)[C@H](O)[C@H](C)O1` [Doxorubicin]?
Answer: IC50 (MDA-MB-231): 2 µM; IC50 (T-47D): 2.2 µM

Question: With `C#CCN(C)CCCOc1ccc(Cl)cc1Cl` [J19, clorgyline] as the molecule, how does the IC50 (MDA-MB-231) read?
Answer: The IC50 was 163 µM.

Question: What about the IC50 (T-47D) of the same molecule?
Answer: The IC50 was 157 µM.

Question: What does the source list for `O=C(c1ccc(OCCN2CCCCC2)cc1)c1c(-c2ccc(O)cc2)sc2cc(O)ccc12` [Raloxifene]?
Answer: IC50 (MDA-MB-231): 27 µM; IC50 (T-47D): 28 µM
